Data set [1] relates to Mus musculus. In words: Neurotoxicity in ip dosed Mus musculus albino (mouse) assessed as minimal motor impairment after 4 hr by rotarod test. In kind it is toxicity, organism-based. Conditions: in vivo. In general terms: Falling from the rotarod earlier than controls is read as motor impairment.
In data set [2] the test system is Mus musculus. In words: Anticonvulsant activity in ip dosed Mus musculus albino (mouse) assessed as protection against maximal electroshock-induced seizure after 0.5 hr. Format: functional. The following applies: read-out: MED. Background: In the maximal electroshock model the usual endpoint is tonic extension of the hind limbs.
The test system of data set [3] is Mus musculus. In words: Anticonvulsant activity in Mus musculus albino (mouse) assessed as protection against subcutaneous metrazole-induced seizure at 300 mg/kg, ip after 0.5 hr. In kind it is functional, organism-based. On the set-up: dose 300 mg/kg.
Data set [4] concerns Mus musculus. Put plainly: Neurotoxicity in ip dosed Mus musculus albino (mouse) assessed as minimal motor impairment after 0.5 hr by rotarod test. In kind it is toxicity, organism-based. Conditions: in vivo.
For data set [5], the system named is Mus musculus. Put plainly: Anticonvulsant activity in ip dosed Mus musculus albino (mouse) assessed as protection against maximal electroshock-induced seizure after 4 hr. In kind it is functional. Conditions: read-out: MED.
Data set [6] concerns Mus musculus. Put plainly: Anticonvulsant activity in Mus musculus albino (mouse) assessed as protection against subcutaneous metrazole-induced seizure at 300 mg/kg, ip after 4 hr. Format: functional, organism-based. On the set-up: dose 300 mg/kg.
In data set [7] the test system is Mus musculus. In words: Anticonvulsant activity in Mus musculus albino (mouse) assessed as protection against maximal electroshock-induced seizure at 300 mg/kg, ip after 4 hr. In kind it is functional, organism-based. On the set-up: dose 300 mg/kg.
Data set [8] concerns Mus musculus. In words: Anticonvulsant activity in Mus musculus albino (mouse) assessed as protection against maximal electroshock-induced seizure at 300 mg/kg, ip after 0.5 hr. Format: functional, organism-based. On the set-up: dose 300 mg/kg.
In data set [9] the test system is Mus musculus. In words: Neurotoxicity in Mus musculus albino (mouse) assessed as minimal motor impairment at 300 mg/kg, ip after 4 hr by rotarod test. In kind it is toxicity, organism-based. On the set-up: dose 300 mg/kg, route intraperitoneal. The following applies: in vivo.
For data set [10], the system named is Mus musculus. Put plainly: Neurotoxicity in Mus musculus albino (mouse) assessed as minimal motor impairment at 300 mg/kg, ip after 0.5 hr by rotarod test. Format: toxicity, organism-based. Also on record: dose 300 mg/kg, route intraperitoneal. Conditions: in vivo.
For data set [11], the system named is Mus musculus. In words: Anticonvulsant activity in ip dosed Mus musculus albino (mouse) assessed as protection against subcutaneous metrazole-induced seizure after 0.5 hr. Format: functional. The following applies: read-out: MED.
The test system of data set [12] is Mus musculus. Put plainly: Anticonvulsant activity in ip dosed Mus musculus albino (mouse) assessed as protection against subcutaneous metrazole-induced seizure after 4 hr. Conditions: read-out: MED. Format: functional.

The source made the active and inactive calls. No cut-off for these calls is given here.

As for `O=C1NC(=O)C(c2ccccc2)(c2ccccc2)N1` [PHENYTOIN], the Activity with Mus musculus [1] and in the data set with Mus musculus [4] was 100 mg/kg each time. For the same compound, the minimal effective dose with Mus musculus [2] and with Mus musculus [5] was 30 mg/kg each time. Further, the outcome in the data set with Mus musculus [3] and with Mus musculus [6] was inactive.

`COc1ccc(-c2nnc(-n3c(-c4ccccc4)nc4ccccc4c3=O)o2)cc1`: the result in the data set with Mus musculus [7], in the data set with Mus musculus [8], in the data set with Mus musculus [3] and with Mus musculus [6] was inactive. Moreover, the Activity in the data set on Mus musculus [1] and with Mus musculus [4] was 300 mg/kg throughout.

Turning to `O=c1c2ccccc2nc(-c2ccccc2)n1-c1nnc(-c2ccc(F)cc2)o1`, the minimal effective dose in the data set with Mus musculus [2] and with Mus musculus [5] was 300 mg/kg throughout. In addition, the outcome with Mus musculus [3] and in the data set with Mus musculus [6] was inactive. Besides, the Activity in the data set on Mus musculus [4] was 300 mg/kg; in the data set on Mus musculus [9], “Non-toxic”.

As to `O=c1c2ccccc2nc(-c2ccccc2)n1-c1nnc(-c2ccccc2)o1`, the outcome in the data set with Mus musculus [7], in the data set with Mus musculus [3] and with Mus musculus [6] was inactive. For the same compound, in the data set on Mus musculus [2], the minimal effective dose was found to be 300 mg/kg. In addition, the Activity entry in the data set on Mus musculus [10] and with Mus musculus [9] was “Non-toxic” throughout.

Take `Cc1ccc(-c2nnc(-n3c(-c4ccccc4)nc4ccccc4c3=O)o2)cc1`: the outcome in the data set with Mus musculus [7], in the data set with Mus musculus [8], with Mus musculus [3] and with Mus musculus [6] was inactive. Moreover, the Activity is 300 mg/kg in the data set on Mus musculus [1] and “Non-toxic” in the data set with Mus musculus [10].

Consider `O=c1c2ccccc2nc(-c2ccccc2)n1-c1nnc(-c2ccc(Cl)cc2)o1`, for which the outcome in the data set with Mus musculus [7], with Mus musculus [8], with Mus musculus [3] and with Mus musculus [6] was inactive. Also, the Activity result in the data set on Mus musculus [10] and with Mus musculus [9] was “Non-toxic” in each case.

As for `O=c1c2ccccc2nc(-c2ccccc2)n1-c1nnc(-c2ccc([N+](=O)[O-])cc2)o1`, the result in the data set on Mus musculus [7], in the data set on Mus musculus [8], in the data set on Mus musculus [3] and in the data set with Mus musculus [6] was inactive. The Activity with Mus musculus [1] and in the data set with Mus musculus [4] was 300 mg/kg each time.

For `NC(=O)N1c2ccccc2C=Cc2ccccc21` [CARBAMAZEPINE], the results for the Activity in the data set on Mus musculus [1] and in the data set with Mus musculus [4] were 300 mg/kg and 100 mg/kg, respectively. Moreover, the minimal effective dose in the data set with Mus musculus [2] was 30 mg/kg; in the data set with Mus musculus [11] it was 100 mg/kg; in the data set with Mus musculus [5], 100 mg/kg; with Mus musculus [12], 300 mg/kg.
